# Source: patent US6737383B1, “Herbicidal oxadiazolidines” (priority 1999, dated 2004)
# Assays:
# bedstraw = experiment: Test B pre/postemergence bedstraw; assay type: in vivo, Galium aparine
# How it was run: (§1)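 Response is a visual 0-to-10 score relative to untreated plants, where 0 means no effect and 10 means complete control, taken twelve to sixteen days after application. Treatments went onto soil at planting and onto foliage of 1- to 4-leaf plants, using a surfactant-containing non-phytotoxic solvent.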
# blackgrass = experiment: Test B pre/postemergence blackgrass; assay type: in vivo, Alopecurus myosuroides
# How it was run: as §1
# surinam grass = experiment: Test B pre/postemergence surinam grass; assay type: in vivo, Brachiaria decumbens
# How it was run: as §1
# cocklebur = experiment: Test B pre/postemergence cocklebur; assay type: in vivo, Xanthium strumarium
# How it was run: as §1
# giant foxtail = experiment: Test B pre/postemergence giant foxtail; assay type: in vivo, Setaria faberii
# How it was run: as §1
# morningglory = experiment: Test B pre/postemergence morningglory; assay type: in vivo, Ipomoea hederacea
# How it was run: as §1
# pigweed = experiment: Test B pre/postemergence pigweed; assay type: in vivo, Amaranthus retroflexus
# How it was run: as §1
# rape = experiment: Test B pre/postemergence rape; assay type: in vivo, Brassica napus
# How it was run: as §1
# soybean = experiment: Test B pre/postemergence soybean; assay type: in vivo, Glycine max
# How it was run: as §1
# sugar beet = experiment: Test B pre/postemergence sugar beet; assay type: in vivo, Beta vulgaris
# How it was run: as §1
# wheat = experiment: Test B pre/postemergence wheat; assay type: in vivo, Triticum aestivum
# How it was run: as §1
# wild oat = experiment: Test B pre/postemergence wild oat; assay type: in vivo, Avena fatua
# How it was run: as §1
# purple nutsedge = experiment: Test B pre/postemergence purple nutsedge; assay type: in vivo, Cyperus rotundus
# How it was run: as §1
# smallflower flatsedge = experiment: Test B flood test smallflower flatsedge; assay type: in vivo, Cyperus difformis
# How it was run: (§2)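 Flood test on plants grown to the 2-leaf stage; treated plants kept in greenhouse twelve to sixteen days, then visually rated against controls on a 0 (no effect) to 10 (complete control) scale.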
# duck salad = experiment: Test B flood test duck salad; assay type: in vivo, Heteranthera limosa
# How it was run: as §2
# bamyardgrass = experiment: Test B flood test barnyardgrass; assay type: in vivo, Echinochloa crus-galli
# How it was run: as §2
# [1] = Preemergence, Rate 62 g/ha, scale of 0 to 10 where 0 is no effect and 10 is complete control
# [2] = Preemergence, Rate 250 g/ha, scale of 0 to 10 where 0 is no effect and 10 is complete control
# [3] = Preemergence, Rate 500 g/ha, scale of 0 to 10 where 0 is no effect and 10 is complete control
# [4] = Rate 62 g/ha, Postemergence, scale 0 to 10 (0 no effect, 10 complete control)
# [5] = Rate 125 g/ha, Postemergence, scale of 0 to 10 where 0 is no effect and 10 is complete control
# [6] = Rate 250 g/ha, Postemergence, scale of 0 to 10 where 0 is no effect and 10 is complete control
# [7] = Rate 500 g/ha, Postemergence, scale 0 to 10, 0 no effect, 10 complete control
# [8] = Rate 62 g/ha, headed Pre-emergence (flood test species), scale 0 to 10 (0 no effect, 10 complete control)
# [9] = Rate 125 g/ha, Pre-emergence, flood test species, scale 0 to 10 where 0 is no effect and 10 is complete control
# [10] = Rate 250 g/ha, Pre-emergence, flood-test species, scale 0 to 10, 0 is no effect, 10 is complete control
# [11] = Rate 500 g/ha, Pre-emergence, flood test species, scale 0 to 10 (0 no effect, 10 complete control)
smiles,measurement,setting,value
C=CCn1c(=O)on(C(=O)N(c2ccc(Cl)cc2)C(C)C2CC2)c1=O (centres unmarked) [Compound 325],Bedstraw plant response rating,bedstraw; [1],0
same,Bedstraw plant response rating (0 to 10 scale),"bedstraw; Preemergence, Rate 125 g/ha",0
same,Bedstraw plant response rating,bedstraw; [2],0
same,Bedstraw plant response rating,bedstraw; [3],0
same,Bedstraw plant response rating,bedstraw; [4],2
same,Bedstraw plant response rating,bedstraw; [5],8
same,Blackgrass plant response rating,blackgrass; [1],0
same,Blackgrass plant response rating (0 to 10 scale),"blackgrass; Preemergence, Rate 125 g/ha",1
same,Blackgrass plant response rating,blackgrass; [2],2
same,Blackgrass plant response rating,blackgrass; [3],7
same,Blackgrass plant response rating,blackgrass; [4],0
same,Blackgrass plant response rating,blackgrass; [5],0
same,"Plant response rating, Blackgrass",blackgrass; [6],3
same,"Plant response rating, Blackgrass",blackgrass; [7],7
same,B. signalgrass plant response rating,surinam grass; [1],0
same,"B. signalgrass plant response rating (0 to 10 scale, 0 is no effect, 10 is complete control)","surinam grass; Preemergence, Rate 125 g/ha",0
same,B. signalgrass plant response rating,surinam grass; [2],0
same,B. signalgrass plant response rating,surinam grass; [3],0
same,B. signalgrass plant response rating,surinam grass; [4],0
same,B. signalgrass plant response rating,surinam grass; [5],0
same,"Plant response rating, B. signalgrass",surinam grass; [6],0
same,"Plant response rating, B. signalgrass",surinam grass; [7],2
same,Cocklebur plant response rating,cocklebur; [1],0
same,Cocklebur plant response rating (0 to 10 scale),"cocklebur; Preemergence, Rate 125 g/ha",0
same,Cocklebur plant response rating,cocklebur; [2],0
same,Cocklebur plant response rating,cocklebur; [3],0
same,Cocklebur plant response rating,cocklebur; [4],0
same,Cocklebur plant response rating,cocklebur; [5],0
same,"Plant response rating, Cocklebur",cocklebur; [6],0
same,"Plant response rating, Cocklebur",cocklebur; [7],3
same,Giant foxtail plant response rating,giant foxtail; [1],3
same,Giant foxtail plant response rating (0 to 10 scale),"giant foxtail; Preemergence, Rate 125 g/ha",7
same,Giant foxtail plant response rating,giant foxtail; [2],8
same,Giant foxtail plant response rating,giant foxtail; [3],10
same,Giant foxtail plant response rating,giant foxtail; [4],0
same,Giant foxtail plant response rating,giant foxtail; [5],0
same,"Plant response rating, Giant foxtail",giant foxtail; [6],0
same,"Plant response rating, Giant foxtail",giant foxtail; [7],0
same,Morningglory plant response rating,morningglory; [1],0
same,Morningglory plant response rating (0 to 10 scale),"morningglory; Preemergence, Rate 125 g/ha",0
same,Morningglory plant response rating,morningglory; [2],0
same,Morningglory plant response rating,morningglory; [3],0
same,Morningglory plant response rating,morningglory; [4],4
same,Morningglory plant response rating,morningglory; [5],6
same,"Plant response rating, Morningglory",morningglory; [6],8
same,"Plant response rating, Morningglory",morningglory; [7],8
same,Redroot pigweed plant response rating,pigweed; [1],0
same,Redroot pigweed plant response rating (0 to 10 scale),"pigweed; Preemergence, Rate 125 g/ha",0
same,Redroot pigweed plant response rating,pigweed; [2],0
same,Redroot pigweed plant response rating,pigweed; [3],0
same,Redroot pigweed plant response rating,pigweed; [4],0
same,Redroot pigweed plant response rating,pigweed; [5],0
same,"Plant response rating, Redroot pigweed",pigweed; [6],4
same,"Plant response rating, Redroot pigweed",pigweed; [7],7
same,Rape plant response rating,rape; [1],0
same,Rape plant response rating (0 to 10 scale),"rape; Preemergence, Rate 125 g/ha",0
same,Rape plant response rating,rape; [2],0
same,Rape plant response rating,rape; [3],0
same,Rape plant response rating,rape; [4],0
same,Rape plant response rating,rape; [5],0
same,"Plant response rating, Rape",rape; [6],0
same,"Plant response rating, Rape",rape; [7],2
same,Soybean plant response rating,soybean; [1],0
same,Soybean plant response rating (0 to 10 scale),"soybean; Preemergence, Rate 125 g/ha",0
same,Soybean plant response rating,soybean; [2],0
same,Soybean plant response rating,soybean; [3],0
same,Soybean plant response rating,soybean; [4],2
same,Soybean plant response rating,soybean; [5],2
same,"Plant response rating, Soybean",soybean; [6],1
same,"Plant response rating, Soybean",soybean; [7],3
same,Sugarbeets plant response rating,sugar beet; [1],0
same,Sugarbeets plant response rating (0 to 10 scale),"sugar beet; Preemergence, Rate 125 g/ha",0
same,Sugarbeets plant response rating,sugar beet; [2],0
same,Sugarbeets plant response rating,sugar beet; [3],0
same,Sugarbeets plant response rating,sugar beet; [4],0
same,Sugarbeets plant response rating,sugar beet; [5],0
same,"Plant response rating, Sugarbeets",sugar beet; [6],0
same,"Plant response rating, Sugarbeets",sugar beet; [7],0
same,Wheat plant response rating,wheat; [1],0
same,Wheat plant response rating (0 to 10 scale),"wheat; Preemergence, Rate 125 g/ha",0
same,Wheat plant response rating,wheat; [2],0
same,Wheat plant response rating,wheat; [3],0
same,Wheat plant response rating,wheat; [4],0
same,Wheat plant response rating,wheat; [5],0
same,"Plant response rating, Wheat",wheat; [6],2
same,"Plant response rating, Wheat",wheat; [7],5
same,Wild oats plant response rating,wild oat; [1],0
same,Wild oats plant response rating (0 to 10 scale),"wild oat; Preemergence, Rate 125 g/ha",0
same,Wild oats plant response rating,wild oat; [2],0
same,Wild oats plant response rating,wild oat; [3],2
same,Wild oats plant response rating,wild oat; [4],0
same,Wild oats plant response rating,wild oat; [5],0
same,"Plant response rating, Wild oats",wild oat; [6],0
same,"Plant response rating, Wild oats",wild oat; [7],4
same,Nutsedge plant response rating,purple nutsedge; [1],0
same,Nutsedge plant response rating (0 to 10 scale),"purple nutsedge; Preemergence, Rate 125 g/ha",0
same,Nutsedge plant response rating,purple nutsedge; [2],0
same,Nutsedge plant response rating,purple nutsedge; [4],0
same,Nutsedge plant response rating,purple nutsedge; [5],0
same,"Plant response rating, Nutsedge",purple nutsedge; [6],0
same,"Plant response rating, Nutsedge",purple nutsedge; [7],0
same,S. Flatsedge plant response rating,smallflower flatsedge; [8],0
same,S. Flatsedge plant response rating,smallflower flatsedge; [9],0
same,S. Flatsedge plant response rating,smallflower flatsedge; [10],0
same,S. Flatsedge plant response rating,smallflower flatsedge; [11],0
same,Ducksalad plant response rating,duck salad; [8],0
same,Ducksalad plant response rating,duck salad; [9],0
same,Ducksalad plant response rating,duck salad; [10],0
same,Ducksalad plant response rating,duck salad; [11],0
same,Barnyardgrass plant response rating,bamyardgrass; [8],0
same,Barnyardgrass plant response rating,bamyardgrass; [9],0
same,Barnyardgrass plant response rating,bamyardgrass; [10],0
same,Barnyardgrass plant response rating,bamyardgrass; [11],0
